In patent US20230165818A1, “COMPOSITION FOR REDUCING HEPATIC TRIGLYCERIDES AND/OR IMPROVING GLUCOSE METABOLISM” (Compagnie Gervais Danone, priority 2020, published 2023):

Columns and labels:
FAO rat hepatocytes = experiment: Hepatic glucose production (HGP) in FAO cells; type: cell-based
Protocol: FAO rat hepatocytes were maintained in RPMI 1640 medium (Invitrogen) supplemented with 10% FBS. Cells were maintained in this medium 48 h before treatment. They were then serum-deprived overnight for 16 h with or without insulin (1 nM) and with HICA, HIVA or HMVA product at 10 nM, 100 nM, 1 μM, 10 μM, 100 μM and 1 mM. The cells were washed three times with PBS and incubated with phenol red- and glucose-free DMEM medium supplemented with 20 mM sodium L-lactate and 2 mM sodium pyruvate for 5 h with or without insulin and the indicated study treatment. Cell supernatant was collected, and glucose concentration was measured with the Amplex-Red Glucose assay kit accordingly to the manufacturer's instructions (Invitrogen). Cells were lysed with 50 mM NaOH, and protein concentration was determined using a BCA protein assay kit to normalize glucose production.

L6 myocytes = experiment: Glucose uptake in L6 muscle cells; type: cell-based; details: 0.01, 0.1 or 1 μM, basal and insulin conditions (FIGS. 2G and H)
Protocol: FIG. 2. (A) HGP of FAO cells treated with a 1 mM mixture of HICA: HIVA: HMVA at molar ratio 1:1:0.5 in basal condition. (B) HGP of FAO cells treated with a 1 mM mixture of HICA: HIVA: HMVA at molar ratio 1:1:0.5 in insulin condition. (C) HGP of FAO cells treated with 0.5 and 1 mM of HICA, leucine or combination of both in basal condition. (D) HGP of FAO cells treated with 0.5 and 1 mM of HICA, leucine or combination of both in insulin condition. (E) Glucose uptake of L6 muscle cells treated with a 0.1 or 1 μM mixture of HICA: HIVA: HMVA at molar ratio 1:1:0.5 in basal condition. (F) Glucose uptake of L6 cells treated with a 0.1 or 1 μM mixture of HICA: HIVA: HMVA at molar ratio 1:1:0.5 in insulin condition. (G) Glucose uptake of L6 cells treated with 0.01, 0.1 or 1 μM of HICA in basal condition. (H) Glucose uptake of L6 cells treated with 0.01, 0.1 or 1 μM of HICA in insulin condition.*p<0.05 versus control, **p<0.01 versus control, ***p<0.001 vs control, kp<0.05 versus Leu 0.5 mM, ^$ p<0.05 versus Leu 1 mM, ^$$ p<0.01 versus Leu 1 mM, ^$$$ p<0.001 versus Leu 1 mM. For panel C, D, G, H expressed in fold, basal and basal insulin are considered as a reference and represented by a dash line.
The Inventors elected to test the hypothesis that BCHA could exert direct effects in relevant cells. […]

CC(C)CC(O)C(=O)O (stereo not drawn) [HICA, alpha-hydroxyisocaproic acid]
effect on HGP in combination with leucine (FAO rat hepatocytes; 0.5 and 1 mM HICA combined with leucine (FIGS. 2C and D)): competed the effect of its BCAA leucine precursor | basal HGP (FAO rat hepatocytes; 0.5 and 1 mM, basal condition (FIG. 2C)): dose-dependently inhibited | insulin-suppressed HGP (FAO rat hepatocytes; 0.5 and 1 mM, insulin condition (FIG. 2D)): dose-dependently inhibited | glucose uptake, individual BCHA (L6 myocytes): these effects appeared to be mostly explained by HICA
